# Assay results published in patent US9150598B2, “Masking apertures enabling automation and solution exchange in sessile bilayers” (The Regents of the University of California, priority 2011, dated 2015).
# Experiments:
# TRPM8 [1] = biological target: T1, TRPM8 (Rattus norvegicus, UniProt Q8R455); assay: Ensemble TRPM8 currents while varying PI(4,5)P2 concentration; format: biochemical; conditions: 250 μM menthol, +100 mV, 20° C.
# T1 construct: 6x histidine tag (N); made in house; host or cells: E. coli
# Procedure: Data were filtered at 200 Hz. Measurements began in the absence of PI(4,5)P2. After ten minutes at each concentration, the concentration of PI(4,5)P2 was then increased by 0.8 μM with the addition of […] PI(4,5)P2 stock solution (100 μM) to the 200 μL lower aqueous solution. With no PI(4,5)P2 in the measurement solution, there was no observed channel activity. As the concentration of PI(4,5)P2 increased, frequency of channel opening increased. […] Throughout experiments, temperature was kept constant at 20° C.
# During measurement, solutions were added to the fluid inlet well and withdrawn from the fluid outlet well (FIG. 6D).
# Bilayers were formed with this chip at very high yield and with highly consistent diameters (163±14 μm (n=55), measured capacitively).^17 Following bilayer formation, a potential of 0 mV was applied followed by voltage steps from −100 mV to +100 mV, in 20 mV increments for 10 seconds each, and the resulting current measured. We measured no TRPM8 currents in the absence of the signaling phospholipid PI(4,5)P2, in agreement with previous work (B. Liu and F. Qin, J. Neurosci., 2005, 25, 1674-1681; T. Rohács, C. M. B. Lopes, I. Michailidis and D. E. Logothetis, Nat. Neurosci., 2005, 8, 626-634). […] With PI(4,5)P2, constant TRPM8 currents were almost always observed immediately upon bilayer formation.
# TRPM8 [2] = biological target: T1, TRPM8; assay: Ensemble TRPM8 currents in droplet lipid bilayer with solution perfusion (drug potency); format: biochemical; conditions: +100 mV
# Procedure: (§1) The apparatus was prepared for use by filling the outer wells and lower channel with 200 μL of an aqueous solution containing liposomes (described below) (FIG. 1B). The 200 μm aperture in the hydrophobic Delrin film is sufficiently small to prevent flow of aqueous solution through it. 80 μL of n-decane was then added to the center well, contacting the lower aqueous solution through the Delrin aperture (FIG. 1B). […] The lower aqueous solution could be exchanged by adding and withdrawing fluids through the outer wells (FIG. 1B).
# 2 μL of this solution was used for the sessile droplet and 200 μL of this solution (or a similarly prepared liposome solution not containing TRPM8) was added to the lower aqueous channel.
# A Ag/AgCl counter electrode placed in the one of the outer wells and the Ag/AgCl pin electrode were connected to an Axopatch 200B amplifier (Axon Instruments), which was used to apply a transmembrane potential and measure the resultant ionic current (FIG. 1B). […] Bilayer capacitance was measured throughout to ensure that changes in measured current were due to changes in channel conductance and not changes in bilayer size or stability. […]
# The resultant current at each concentration was measured over 10 minutes before the concentration was increased (FIG. 7). […]
# The average current at each concentration was determined and normalized by the maximum value measured. […]
# [3] = Control: DPhPC droplet bilayers made without hERG membrane preparations; conditions: identical amounts of drug added
# TRPM8 [4] = biological target: T1, TRPM8; assay: Single-channel TRPM8 recordings in droplet lipid bilayer (open probability); format: biochemical; conditions: 20° C., +100 mV, 2.5 μM PI(4,5)P2, n=9
# Procedure: as §1
# A TRPM8 construct with 6× histidine tag at the amino terminus was transformed into E. coli, expressed, and purified. […] The resulting proteoliposomes were aliquoted and stored at −80° C. […]
# A Ag/AgCl counter electrode placed in the one of the outer wells and the Ag/AgCl pin electrode were connected to an Axopatch 200B amplifier (Axon Instruments), which was used to apply a transmembrane potential and measure the resultant ionic current (FIG. 1B). […] Bilayer capacitance was measured throughout to ensure that changes in measured current were due to changes in channel conductance and not changes in bilayer size or stability.
# Temperature was measured using a 10 kΩ n-type thermistor (Newark) placed in the solution of one of the outer wells. […]
# Ensembles of TRPM8 were measured using a 1:1000 protein:lipid ratio.
# T1 sequence (Q8R455 whole entry): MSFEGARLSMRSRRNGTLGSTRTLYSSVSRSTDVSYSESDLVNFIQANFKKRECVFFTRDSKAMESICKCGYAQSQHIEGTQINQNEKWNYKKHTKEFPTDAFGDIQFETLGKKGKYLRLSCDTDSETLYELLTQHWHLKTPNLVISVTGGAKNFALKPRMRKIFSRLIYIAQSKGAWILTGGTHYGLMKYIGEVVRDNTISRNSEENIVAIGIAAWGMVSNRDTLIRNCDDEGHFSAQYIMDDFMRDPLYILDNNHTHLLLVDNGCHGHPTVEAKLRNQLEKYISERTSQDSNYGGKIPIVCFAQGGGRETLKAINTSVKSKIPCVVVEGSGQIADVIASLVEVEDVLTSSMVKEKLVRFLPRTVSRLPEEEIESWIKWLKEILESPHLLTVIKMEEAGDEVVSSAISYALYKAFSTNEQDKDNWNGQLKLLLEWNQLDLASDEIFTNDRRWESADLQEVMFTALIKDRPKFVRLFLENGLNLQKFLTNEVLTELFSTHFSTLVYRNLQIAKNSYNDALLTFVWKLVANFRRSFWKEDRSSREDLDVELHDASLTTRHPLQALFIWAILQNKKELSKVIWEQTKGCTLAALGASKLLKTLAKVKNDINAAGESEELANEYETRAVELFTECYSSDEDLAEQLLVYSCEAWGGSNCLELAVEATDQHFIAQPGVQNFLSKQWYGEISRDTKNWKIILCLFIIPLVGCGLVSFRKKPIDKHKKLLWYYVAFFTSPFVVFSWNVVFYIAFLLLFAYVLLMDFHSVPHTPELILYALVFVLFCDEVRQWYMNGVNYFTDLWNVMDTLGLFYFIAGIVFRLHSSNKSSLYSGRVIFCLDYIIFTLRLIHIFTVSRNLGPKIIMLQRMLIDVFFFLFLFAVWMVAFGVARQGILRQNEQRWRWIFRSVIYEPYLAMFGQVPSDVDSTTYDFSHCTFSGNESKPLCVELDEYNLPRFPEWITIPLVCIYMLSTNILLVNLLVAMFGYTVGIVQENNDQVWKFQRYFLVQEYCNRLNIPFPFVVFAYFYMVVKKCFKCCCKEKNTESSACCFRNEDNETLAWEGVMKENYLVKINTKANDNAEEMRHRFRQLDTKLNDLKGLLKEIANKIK
molecule,measurement,setting,value
"phosphatidylinositol-4,5-bisphosphate [PI(4,5)P2]","PI(4,5)P2 concentration at which maximum current did not increase further",TRPM8 [1],2.4 µM
"NCCOB(c1ccccc1)c1ccccc1 [2-APB, 2-aminoethoxydiphenyl borate]",IC50,"TRPM8 [2]; read-out: IC50 of 2-APB on menthol-evoked TRPM8 currents, in 500 μM menthol, protein:lipid 1:1000, n=3",4.9 µM
COc1ccc(CCN2CCC(Nc3nc4ccccc4n3Cc3ccc(F)cc3)CC2)cc1 [astemizole],Effect on bilayers without hERG,[3],no change in membrane conductance observed
CC1CCC(C(C)C)C(O)C1 (stereo not drawn) [menthol],EC50,"TRPM8 [2]; protein:lipid 1:1000, 2.5 μM PI(4,5)P2, n=3",112 µM
same,Popen (open probability) of TRPM8,TRPM8 [4]; 50 μM menthol,0.639±0.029
same,Popen (open probability) of TRPM8,TRPM8 [4]; 500 μM menthol,0.967±0.013
